Data published in patent US20220089663A1, “PROTEINS AND FLUOROPHORE-CONTAINING COMPOUNDS SELECTIVE FOR NaV1.7” (MEMORIAL SLOAN KETTERING CANCER CENTER, priority 2019, published 2022).

Assays:
hNav1.2 = molecular target: T1, hNav1.2 (Homo sapiens, UniProt Q99250); test: automated whole-cell patch clamp (QPatch 16X), HEK293-hNav1.2; format: cell-based
T1 construct: host or cells: HEK293

[1] = acute in vivo toxicity after intravenous injection; set-up: species or system mouse
Procedure: Acute in vivo toxicity. All animal experiments were performed in accordance with protocols approved by the Institutional Animal Care and Use Committee of MSK and followed the National Institute of Health guidelines for animal welfare. Six athymic nude mice 6-8 weeks old were purchased from Envigo RMS, Inc. An intravenous (IV) catheter was placed in tail vein of each mouse and they were anesthetized using Isoflurane (Novaplus, Telangana-India). Anesthesia was maintained using 1.0 to 1.5 L/min of Isoflurane and 2 L/min of oxygen. Three animals were injected with 68 μM, 7 nmol Hsp1a-FL in 100 μL of PBS, and the other three with […], of PBS. Animals were monitored using a rodent surgical monitor (Indus instruments, Houston, Tex.) before, during, and up to 16 minutes after injection. Numeric data points represent averaged values of 5±1 seconds duration. Data was collected before injection, 15 seconds after injection, 5 minutes after injection and 15 minutes after injection. Mouse body core temperature was measured by placing a rectal probe and electronically regulated via a surgical platform. The high-resolution electrocardiogram (EKG) was measured by placing non-invasive electrodes on the 4 paws and electrical contact was assured using a conducting gel (Electrode cream, Indus instruments, Houston, Tex.). Heart rate was automatically calculated from the R-R peaks derived from the EKG signal. Peripheral capillary oxygen saturation (SpO2) was non-invasively measured by placing a clip sensor on the animal's left thigh.
Statistical Analysis. Data were statistically analyzed by generalized estimating equations followed by LSD post hoc test when appropriate using SPSS 23.0. During animal toxicity studies, data points representing loss of signal were excluded from the analysis. Loss of signal was defined by a brief contact loss between the monitoring equipment and the mice (creating a “false” zero or −1 result). Loss of signal was corrected by placing the electrode in close contact to the mice. Average and standard deviations were calculated for each mouse.
Unless otherwise stated, data points represent mean values and error bars represent the standard deviation of biological replicates (mean±SEM). All p-values were calculated using a Student's unpaired t-test. Statistical significance was considered for p-values<0.05 and as follows: ns=not significant, *p<0.05, **p<0.01, ***p<0.001. Mann-Whitney tests were used for analysis of the unpaired samples (e.g. vital signs in mice injected with Hsp1a and mice from the control group) and the Wilcoxon test was used for analysis of paired samples (e.g. vital signs from same mouse before and after injection). Statistical significance was determined with alpha=0.05. Analysis and figures were prepared in GraphPad Prism 8.

hNav1.6 = molecular target: T2, hNav1.6 (Homo sapiens, UniProt Q9UQD0); test: automated whole-cell patch clamp (QPatch 16X), HEK293-hNav1.6; format: cell-based
T2 construct: host or cells: HEK293

hNav1.7 = molecular target: T3, hNav1.7 (Homo sapiens, UniProt Q15858); test: automated whole-cell patch clamp (QPatch 16X), HEK293-hNav1.7; format: cell-based
T3 construct: host or cells: HEK293

hNav1.3 = molecular target: T4, hNav1.3 (Homo sapiens, UniProt Q9NY46); test: automated whole-cell patch clamp (QPatch 16X), HEK293-hNav1.3; format: cell-based
T4 construct: host or cells: HEK293
T4 sequence (Q07699 19-218): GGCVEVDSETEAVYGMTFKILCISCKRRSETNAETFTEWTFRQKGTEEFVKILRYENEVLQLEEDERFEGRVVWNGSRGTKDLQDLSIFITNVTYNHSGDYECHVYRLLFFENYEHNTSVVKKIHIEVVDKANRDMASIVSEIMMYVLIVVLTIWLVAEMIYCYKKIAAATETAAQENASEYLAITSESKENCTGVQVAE
T4 sequence (Q9NY46 whole entry): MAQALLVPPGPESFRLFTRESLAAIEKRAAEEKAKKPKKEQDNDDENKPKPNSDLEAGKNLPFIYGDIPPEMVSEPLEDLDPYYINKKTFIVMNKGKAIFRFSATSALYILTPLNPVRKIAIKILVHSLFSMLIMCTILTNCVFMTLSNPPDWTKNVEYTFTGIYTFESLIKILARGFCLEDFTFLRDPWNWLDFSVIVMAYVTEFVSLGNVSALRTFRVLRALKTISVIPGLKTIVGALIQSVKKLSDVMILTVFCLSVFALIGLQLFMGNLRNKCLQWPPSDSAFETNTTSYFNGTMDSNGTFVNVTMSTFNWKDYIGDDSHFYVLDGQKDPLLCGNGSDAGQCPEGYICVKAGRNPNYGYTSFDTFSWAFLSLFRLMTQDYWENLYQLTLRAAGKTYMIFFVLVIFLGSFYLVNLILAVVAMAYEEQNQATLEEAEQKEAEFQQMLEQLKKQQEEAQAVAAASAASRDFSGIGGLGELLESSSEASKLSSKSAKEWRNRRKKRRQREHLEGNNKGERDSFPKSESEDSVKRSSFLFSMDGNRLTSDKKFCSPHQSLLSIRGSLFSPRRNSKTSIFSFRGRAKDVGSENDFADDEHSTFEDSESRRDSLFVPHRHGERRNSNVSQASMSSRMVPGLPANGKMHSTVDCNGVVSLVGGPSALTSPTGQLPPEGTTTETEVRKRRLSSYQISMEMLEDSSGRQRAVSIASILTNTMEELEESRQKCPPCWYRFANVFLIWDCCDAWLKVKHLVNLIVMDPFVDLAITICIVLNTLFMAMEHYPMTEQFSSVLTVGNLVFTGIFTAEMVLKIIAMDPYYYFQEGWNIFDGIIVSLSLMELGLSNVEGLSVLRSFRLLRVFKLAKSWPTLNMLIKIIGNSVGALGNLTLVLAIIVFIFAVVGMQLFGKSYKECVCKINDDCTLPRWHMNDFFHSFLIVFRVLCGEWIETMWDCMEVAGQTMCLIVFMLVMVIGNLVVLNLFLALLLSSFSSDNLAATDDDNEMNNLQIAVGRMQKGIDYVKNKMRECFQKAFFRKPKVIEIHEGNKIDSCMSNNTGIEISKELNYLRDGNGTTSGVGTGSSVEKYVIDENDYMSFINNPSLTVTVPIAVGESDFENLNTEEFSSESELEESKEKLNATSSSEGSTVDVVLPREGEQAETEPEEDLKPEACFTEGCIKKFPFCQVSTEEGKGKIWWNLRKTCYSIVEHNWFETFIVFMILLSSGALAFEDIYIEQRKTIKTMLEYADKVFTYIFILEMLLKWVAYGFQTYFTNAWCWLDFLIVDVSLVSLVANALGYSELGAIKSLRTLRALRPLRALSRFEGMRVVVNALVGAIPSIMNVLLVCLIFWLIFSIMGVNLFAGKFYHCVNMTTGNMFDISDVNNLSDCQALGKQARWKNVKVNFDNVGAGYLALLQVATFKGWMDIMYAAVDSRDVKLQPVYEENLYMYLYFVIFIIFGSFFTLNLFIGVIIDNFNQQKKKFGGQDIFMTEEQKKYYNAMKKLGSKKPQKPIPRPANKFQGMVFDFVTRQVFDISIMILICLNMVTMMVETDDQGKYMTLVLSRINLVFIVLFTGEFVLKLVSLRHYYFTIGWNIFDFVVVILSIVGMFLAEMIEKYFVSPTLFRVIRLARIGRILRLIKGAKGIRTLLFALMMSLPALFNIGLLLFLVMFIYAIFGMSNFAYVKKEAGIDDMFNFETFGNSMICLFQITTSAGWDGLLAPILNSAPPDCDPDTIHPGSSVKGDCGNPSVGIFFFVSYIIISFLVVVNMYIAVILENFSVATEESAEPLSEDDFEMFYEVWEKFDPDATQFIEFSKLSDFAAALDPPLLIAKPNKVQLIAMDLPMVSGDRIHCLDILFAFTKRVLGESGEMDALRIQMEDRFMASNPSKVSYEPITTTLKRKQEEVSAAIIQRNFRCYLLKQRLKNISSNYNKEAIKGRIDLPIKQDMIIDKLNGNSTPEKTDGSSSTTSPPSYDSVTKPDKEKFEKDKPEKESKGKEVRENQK

[2] = before, 15 seconds, 5 and 15 minutes after injection

T1 sequence (Q07699 19-218): as the sequence (Q07699 19-218) above
T1 sequence (Q99250 whole entry): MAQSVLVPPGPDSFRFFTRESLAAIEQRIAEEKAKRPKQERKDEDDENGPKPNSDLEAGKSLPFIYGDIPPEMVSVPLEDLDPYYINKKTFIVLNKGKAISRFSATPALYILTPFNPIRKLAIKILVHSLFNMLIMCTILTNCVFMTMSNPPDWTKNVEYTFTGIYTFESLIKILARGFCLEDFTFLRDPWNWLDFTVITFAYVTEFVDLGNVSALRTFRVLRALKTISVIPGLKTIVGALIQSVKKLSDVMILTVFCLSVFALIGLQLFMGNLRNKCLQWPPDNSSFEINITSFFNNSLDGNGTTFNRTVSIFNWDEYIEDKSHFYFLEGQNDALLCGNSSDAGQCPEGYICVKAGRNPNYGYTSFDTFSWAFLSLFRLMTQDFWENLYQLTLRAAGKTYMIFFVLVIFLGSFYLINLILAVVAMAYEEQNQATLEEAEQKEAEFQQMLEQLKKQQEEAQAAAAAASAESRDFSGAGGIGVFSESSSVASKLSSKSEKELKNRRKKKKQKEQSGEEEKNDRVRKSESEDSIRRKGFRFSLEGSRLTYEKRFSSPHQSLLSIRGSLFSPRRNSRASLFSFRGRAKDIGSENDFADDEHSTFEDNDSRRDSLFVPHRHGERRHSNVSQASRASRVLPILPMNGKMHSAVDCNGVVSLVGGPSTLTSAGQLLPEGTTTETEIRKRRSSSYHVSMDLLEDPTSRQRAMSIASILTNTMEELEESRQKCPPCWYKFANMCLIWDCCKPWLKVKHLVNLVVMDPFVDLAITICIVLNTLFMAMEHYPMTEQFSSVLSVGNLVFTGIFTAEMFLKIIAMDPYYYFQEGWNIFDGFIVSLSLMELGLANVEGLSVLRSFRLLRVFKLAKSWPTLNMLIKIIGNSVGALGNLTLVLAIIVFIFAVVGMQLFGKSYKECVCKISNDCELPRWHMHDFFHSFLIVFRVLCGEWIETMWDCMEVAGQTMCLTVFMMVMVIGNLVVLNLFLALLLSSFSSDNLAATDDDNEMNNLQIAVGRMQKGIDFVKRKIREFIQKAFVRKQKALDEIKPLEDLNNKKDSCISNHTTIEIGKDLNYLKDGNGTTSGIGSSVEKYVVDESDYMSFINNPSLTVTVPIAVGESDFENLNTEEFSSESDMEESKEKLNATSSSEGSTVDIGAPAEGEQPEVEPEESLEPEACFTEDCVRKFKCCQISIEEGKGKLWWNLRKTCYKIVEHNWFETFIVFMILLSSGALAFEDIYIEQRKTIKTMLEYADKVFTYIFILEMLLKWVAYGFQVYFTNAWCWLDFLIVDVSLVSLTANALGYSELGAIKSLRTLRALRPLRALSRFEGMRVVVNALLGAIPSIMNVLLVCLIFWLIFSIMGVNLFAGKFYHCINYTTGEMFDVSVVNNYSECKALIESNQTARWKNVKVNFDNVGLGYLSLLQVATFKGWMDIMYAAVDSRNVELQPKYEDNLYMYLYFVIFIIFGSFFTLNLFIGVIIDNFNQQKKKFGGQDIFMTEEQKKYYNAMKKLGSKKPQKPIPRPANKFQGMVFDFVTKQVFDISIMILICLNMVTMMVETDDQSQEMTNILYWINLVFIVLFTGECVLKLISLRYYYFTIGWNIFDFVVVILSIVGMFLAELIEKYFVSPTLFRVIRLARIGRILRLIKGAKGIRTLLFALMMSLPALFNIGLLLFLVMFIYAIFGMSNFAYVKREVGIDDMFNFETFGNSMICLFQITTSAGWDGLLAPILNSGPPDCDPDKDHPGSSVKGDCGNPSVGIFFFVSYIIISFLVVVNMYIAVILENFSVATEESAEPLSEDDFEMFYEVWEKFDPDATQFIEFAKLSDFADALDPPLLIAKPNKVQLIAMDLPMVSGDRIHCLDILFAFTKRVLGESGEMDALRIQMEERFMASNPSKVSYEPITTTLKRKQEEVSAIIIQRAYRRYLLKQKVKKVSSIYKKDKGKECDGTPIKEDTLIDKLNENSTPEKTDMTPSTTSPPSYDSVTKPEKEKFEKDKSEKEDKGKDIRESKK

## CC[C@H](C)[C@H](NC(=O)[C@H](CCCCN)NC(=O)[C@@H]1CSSC[C@@H]2NC(=O)[C@@H]3CCCN3C(=O)[C@H](CCCNC(=N)N)NC(=O)[C@H](CCC(=O)O)NC(=O)[C@H](CO)NC(=O)[C@H](CC(=O)O)NC(=O)[C@@H]3CSSC[C@H](NC(=O)[C@H](C(C)C)NC(=O)[C@H](CC(C)C)NC(=O)CNC(=O)[C@H](CCC(=O)O)NC(=O)[C@H](CSSC[C@H](NC(=O)[C@@H](N)Cc4ccc(O)cc4)C(=O)N[C@@H](CCC(N)=O)C(=O)N[C@@H](CCCCN)C(=O)N[C@@H](Cc4ccccc4)C(=O)N[C@@H](CC(C)C)C(=O)N[C@@H](Cc4c[nH]c5ccccc45)C(=O)N[C@@H]([C@@H](C)O)C(=O)N3)NC2=O)C(=O)N[C@@H](CCCNC(=N)N)C(=O)N[C@@H](CC(C)C)C(=O)N[C@@H](Cc2c[nH]c3ccccc23)C(=O)N1)C(=O)N[C@@H](CC(N)=O)C(N)=O [sHsp1a]
hNav1.2; at 200 nM
  hNav1.2 currents blocked: 30%
hNav1.2; at 2 μM, read-out: max. current inhibition hNav1.2
  inhibition at 2 µM: 60%
hNav1.2; mean±S.E.M, read-out: pIC50 on hNav1.2 (converted)
  IC50: 302 nM
[1]; [2]
  effect on heart muscle (heart rate): no effect
  effect on the respiratory musculature (oxygen saturation in peripheral blood): no effect
[1]; mouse, in vivo
  effect on mouse body temperature: no effect
hNav1.6; at 200 nM
  inhibition of hNav1.6 currents: did not show any significant inhibition
hNav1.6; at 2 μM, read-out: max. current inhibition hNav1.6
  inhibition at 2 µM: < 50%
hNav1.6; read-out: pIC50 on hNav1.6 (converted)
  IC50: > 1000 nM
hNav1.7; at 200 nM
  hNav1.7 currents blocked: 70%
hNav1.7; at 2 μM, read-out: current inhibition hNav1.7
  inhibition at 2 µM: 75%
hNav1.7; mean±S.E.M, read-out: pIC50 on hNav1.7 (converted)
  IC50: 10.5 nM
hNav1.3; at 200 nM
  inhibition of hNav1.3 currents: did not show any significant inhibition
hNav1.3; at 2 μM, read-out: max. current inhibition hNav1.3
  inhibition at 2 µM: < 50%
hNav1.3; read-out: pIC50 on hNav1.3 (converted)
  IC50: > 1000 nM
